Test results taken from patent publication US7935826B2, “Insecticidal N-substituted (heteroaryl)cycloalkyl sulfoximines” (Dow AgroSciences LLC, priority 2006, dated 2011).

Experiments:
Type in all cases: in vivo
[1] = tested on: Cotton Aphid (Aphis gossypii); assay: Insecticidal test for cotton aphid in foliar spray assay on squash; design: key: A: 90-100; B: 80-89; C: 70-79; D: 60-69; E: 50-59; F: Less than 50; G: Inactive; H: Not tested; conditions: Corrected % Control (Abbott), 3 days after spray
Protocol: Insecticidal Test for Cotton Aphid (Aphis gossypii) in Foliar Spray Assay Squash with fully expanded cotyledon leaves were trimmed to one cotyledon per plant and infested with cotton aphid (wingless adult and nymph) 1 day prior to chemical application. Each plant was examined before chemical application to ensure proper infestation (ca. 30-70 aphids per plant). Compounds (2 mg) were dissolved in 2 ml of acetone:methanol (1:1) solvent, forming stock solutions of 1000 ppm. The stock solutions were diluted 5× with 0.025% Tween 20 in H2O to obtain a solution at 200 ppm. Lower concentrations (50, 12.5, 3.125, 0.781 and 0.195 ppm) were prepared by making sequential 4× dilutions from the 200 ppm solution with a diluent consisting 80 parts of 0.025% Tween 20 in H2O and 20 parts of acetone:methanol (1:1). A hand-held Devilbiss sprayer was used to apply the spray solutions until runoff to both sides of the squash cotyledon leaves. Four plants (4 replications) were used for each concentration of each compound. Reference plants (solvent check) were sprayed with the diluent only. Treated plants were held in a holding room for 3 days at approximately 23° C. and 40% RH before the number of live aphids on each plant was recorded. Insecticidal activity was measured by Corrected % Control using Abbott's correction formula and presented in Table 1: Corrected % Control=100*(X−Y)/X • where X=No. of live aphids on solvent check plants • Y=No. of live aphids on treated plants

[2] = tested on: Green Peach Aphid (Myzus persicae); assay: Insecticidal test for green peach aphid in foliar spray assay on cabbage; design: key: A: 90-100; B: 80-89; C: 70-79; D: 60-69; E: 50-59; F: Less than 50; G: Inactive; H: Not tested; conditions: Corrected % Control (Abbott), three days after spray
Protocol: Insecticidal Test for Green Peach Aphid (Myzus persicae) in Foliar Spray Assay Cabbage seedlings grown in 3-inch pots, with 2-3 small (3-5 cm) true leaves, were used as test substrate. The seedlings were infested with 20-50 green peach aphids (wingless adult and nymph) 2-3 days prior to chemical application. Four seedlings were used for each treatment. Compounds (2 mg) were dissolved in 2 ml of acetone:methanol (1:1) solvent, forming stock solutions of 1000 ppm. The stock solutions were diluted 5× with 0.025% Tween 20 in H2O to obtain a solution at 200 ppm. Lower concentrations (50, 12.5, 3.125 and 0.781 ppm) were prepared by making sequential 4× dilutions from the 200 ppm solution with a diluent consisting 80 parts of 0.025% Tween 20 in H2O and 20 parts of acetone:methanol (1:1). A hand-held Devilbiss sprayer was used for spraying a solution to both sides of cabbage leaves until runoff. Reference plants (solvent check) were sprayed with the diluent only. Treated plants were held in a holding room for three days at approximately 23° C. and 40% RH prior to grading. Evaluation was conducted by counting the number of live aphids per plant under a microscope. Insecticidal activity was measured by using Abbott's correction formula: Corrected % Control=100*(X−Y)/X • where X=No. of live aphids on solvent check plants • Y=No. of live aphids on treated plants

[3] = tested on: Sweet Potato Whitefly (Bemisia tabaci); assay: Insecticidal test for sweet potato whitefly in foliar spray assay on cotton; conditions: live large nymphs counted 12 days after spray of egg-infested leaves
Text: Insecticidal Test for Sweet Potato Whitefly (Bemisia tabaci) in Foliar Spray Assay This test was designed to measure the capability of whitefly eggs and/or young nymphs to develop to large nymphs. Cotton seedlings at the growth stage of one or two expanding true leaf were trimmed so that only the first true leaf remained (cotyledon leaves were also removed). The plants were pre-infested with sweet potato whitefly eggs by keeping plants next to the colony-keeping plants for two days. The infested plants were carefully checked for presence of similar egg density before use in the insecticidal tests. Master solutions of test compounds at 1000 ppm were prepared in acetone: methanol (1:1). The 12.5 ppm spray solutions were then made by diluting 0.188 mL of the master solution with 14.812 ml of 0.025% Tween 20 in water. The lower concentrations were made by diluting the 12.5 ppm spray solution with a diluent consisting 98.75 parts of 0.025% Tween 20 in water and 1.25 parts of acetone:methanol (1:1). The diluent was used as solvent control. The test solutions were sprayed with a hand-held Devilbiss sprayer until runoff to both sides of the infested cotton leaves. Four plants (4 replications) were used for each treatment. Treated plants were held in a holding room for 12 days at approximately 23° C. and 40% RH before evaluation. To evaluate the efficacy of the compounds, the number of live large nymphs in an area of 1 square inch on the lower surface of the treated cotton leaves was counted under a microscope. Insecticidal activity was determined by Corrected % Control using Abbott's correction formula and presented in Table 3: Corrected % Control=100*(X−Y)/X • where X=No. of live large nymphs on solvent check plants • Y=No. of live large nymphs on treated plants

[4] = tested on: Brown Planthopper (Nilaparvata lugens); assay: Root-uptake systemic assay on rice, brown planthopper; conditions: 10 ppm in water of rice seedlings, 3rd instar nymphs, mortality observed at 2 and 6 days (day of tabled value not stated)
Protocol: (§1) Insecticidal Test for Brown Planthopper (Nilaparvata lugens) and Green Leafhopper (Nephotettix sp.) A root-uptake systemic assay was performed on both brown planthopper and green leafhopper. Four-week-old rice seedlings were submerged in 3-cm depth of water in the bottom portion (high 5 cm, diameter 3 cm) of a 2-part glass cylinder (high 18 cm, diameter 3 cm). A metal screen was used to hold the seedlings within the bottom portion. Scotch tape was used to bind the two portions of the cylinder after setting up the seedlings. A metal cap was used to cover the cylinder. There were 4 cylinders for each treatment. The test compound was dissolved in acetone to make a 10,000 ppm stock solution. The stock solution was incorporated at final test concentrations of 10 ppm in the water in which rice seedlings were submerged. Five laboratory-reared 3rd instar nymphs of brown planthopper or green leafhopper were introduced into each cylinder 3 hr after insecticide application. The treated test units were kept in a growth chamber with conditions set as followings: Temperature 28±0.5° C.; Relative humidity 70±0.5%; Photoperiod […].

[5] = tested on: Green Leafhopper (Nephotettix sp.); assay: Root-uptake systemic assay on rice, green leafhopper; conditions: 10 ppm in water of rice seedlings, 3rd instar nymphs, mortality observed at 2 and 6 days (day of tabled value not stated)
Protocol: as §1

Row | SMILES | % Control at ppm, against cotton aphid on squash (foliar spray) ([1]; 0.78 ppm) | % Control at ppm, against cotton aphid on squash (foliar spray) ([1]; 3.13 ppm) | % Control at ppm, against cotton aphid on squash (foliar spray) ([1]; 12.5 ppm) | % Control at ppm, against cotton aphid on squash (foliar spray) ([1]; 50 ppm) | % Control at ppm, against green peach aphid on cabbage (foliar spray) ([2]; 0.78 ppm) | % Control at ppm, against green peach aphid on cabbage (foliar spray) ([2]; 3.13 ppm) | % Control at ppm, against green peach aphid on cabbage (foliar spray) ([2]; 12.5 ppm) | % Control at ppm, against green peach aphid on cabbage (foliar spray) ([2]; 50 ppm) | % Control at ppm, against green peach aphid on cabbage (foliar spray) ([2]; 200 ppm) | % Control at ppm, against sweet potato whitefly on cotton, foliar spray ([3]; 0.781 ppm) | % Control at ppm, against sweet potato whitefly on cotton, foliar spray ([3]; 3.125 ppm) | % Control at ppm, against sweet potato whitefly on cotton, foliar spray ([3]; 12.500 ppm) | % Systemic Control at 10 ppm on rice, Brown Planthopper [4] | % Systemic Control at 10 ppm on rice, Green Leafhopper [5]
1 | CS(=O)(=NC#N)C1(c2ccc(C(F)(F)F)nc2)CC1 (stereo not drawn) [Compound 1, methyl(oxido) {1-[6-(trifluoromethyl)pyridin-3-yl]cyclopropyl}-λ^4-sulfanylidenecyanamide] | A (90-100) | A (90-100) | A (90-100) | A (90-100) | F (Less than 50) | B (80-89) | A (90-100) | A (90-100) | A (90-100) | – | – | – | – | –
2 | CS(=O)(=NC#N)C1(c2ccc(Cl)nc2)CCOCC1 (stereo not drawn) [Compound 6, methyl(oxido)[4-(6-chloropyridin-3-yl)tetra hydro-pyran-4-yl]-λ^4-sulfanylidenecyanamide] | A (90-100) | A (90-100) | A (90-100) | A (90-100) | G | G | G | G | A (90-100) | – | – | – | – | –
3 | CS(=O)(=NC#N)C1(c2ccc(Cl)nc2)CCC1 (stereo not drawn) [Compound 3, methyl(oxido)[1-(6-chloropyridin-3-yl)cyclobutyl]-λ^4-sulfanylidenecyanamide] | – | – | – | A (90-100) | – | – | – | – | – | – | – | – | – | –
4 | CS(=O)(=NC#N)C1(c2ccc(Cl)nc2)CC1 (stereo not drawn) [Compound 2, methyl(oxido) [1-(6-chloropyridin-3-yl)cyclopropyl]-λ^4-sulfanylidenecyanamide] | A (90-100) | A (90-100) | – | – | D (60-69) | A (90-100) | – | – | – | F (Less than 50) | E (50-59) | C (70-79) | E (50-59) | B (80-89)
5 | CS(=O)(=NC#N)C1(c2ccc(Cl)nc2)CCCC1 (stereo not drawn) [Compound 4, methyl(oxido)[1-(6-chloropyridin-3-yl)cyclopentyl]-λ^4-sulfanylidenecyanamide] | – | – | – | A (90-100) | – | – | – | – | – | – | – | – | – | –
6 | CS(=O)(=NC#N)C1(c2ccc(Cl)nc2)CCCCC1 (stereo not drawn) [Compound 5, methyl(oxido)[1-(6-chloropyridin-3-yl)cyclohexyl]-λ^4-sulfanylidenecyanamide] | G | A (90-100) | A (90-100) | A (90-100) | – | – | – | – | – | – | – | – | – | –
